Columns and labels:
[1] = test system: Monoclonal Antibody BR 96 (Le^y related); assay: Dot-blot immune stain of carbohydrates with monoclonal antibody BR 96; type: binding; conditions: for Binding with BR 96 (Le^y related) by dot-blot: 0.5 μg antigen spotted, BR 96 diluted 1:500
Procedure: 0.5 μg KH-1 ceramide and other Ley antigen and unrelated antigens were spotted on nitrocellulose strips. Dot blot Immune staining was performed monoclonal antibody BR 96 after blocked with 6% bovine serum albumin in PBS for 1 h and incubated with antibody BR 96 (diluted 1:500 in PBS) overnight at room temperature. The strips were washed with PBS containing 0.05% Tween 20 and incubated with anti-mouse IgG antibody conjugated with horseradish peroxidase at 1:200 dilution for 3 h at room temperature. Then the strips were washed with PBS-0.05% Tween 20 and developed with 4-chloro-1-naphtol-H2O2.

[2] = test system: Monoclonal Antibody F12 (FucosylGM1); assay: Dot-blot immune stain of carbohydrates with monoclonal antibody F12; type: binding; conditions: 0.5 μg antigen spotted

Substance | Binding with BR 96 (Le^y related) by dot-blot [1] | Binding with F12 (FucosylGM1) by dot-blot [2] | Reaction with BR 96 antibody by dot-blot ([1]; compared with other Le^y related antigens)
Globo H ceramide [reference compound] | negative | negative | 
KH-1 antigen [KH-1 ceramide] | very strong | negative | reacted very strongly
